In US12492163B2, “9H-fluorene derivatives or their pharmaceutically acceptable salts” (priority 2020, dated 2025):

What was measured:
[1] = target: Recombinant human Aβ1-42 peptide (Homo sapiens (Human), UniProt P05067); assay: Thioflavin T test, antiaggregation activity against beta-amyloid; format: biochemical; conditions: 10 μM test compound, 1.5 μM Aβ1-42; read-out: inh. Aβ aggr. % inh
Protocol: The thioflavin T test [Levine III] was used for the determinations. Recombinant human Aβ1-42 peptide (HFIP pretreated, Merck Millipore, Darmstadt, Germany) was dissolved in DMSO to form a 75 μM stock solution. The solution was further diluted in HEPES buffer (150 mM HEPES, pH 7.4, 150 mM NaCl) to a concentration of 7.5 μM. Then, the Aβ1-42 solution was added to the test compounds (black 96-well plates were used) and diluted with thioflavin T solution (10 μM final concentration). The final mixture contained 1.5 μM Aβ1-42, 10 μM test compound, and 3% of DMSO. Fluorescence was measured every 300 s (excitation wavelength was 440 nm, emission wavelength was 490 nm) with continuous mixing between measurements. A multifunction microplate reader (Synergy H4; BioTek Instruments, Inc., Winooski, VT, USA) was used to measure the fluorescence. Fluorescence started increasing after approximately 4 hours, plateaued after 20 hours and remained virtually unchanged for the next 28 hours of incubation. The plateau-phase fluorescence intensities (in the presence and absence of test compounds) were averaged and the mean fluorescence values for the respective wells at t=0 h were subtracted from them. […] IC50 values were calculated using non-linear regression (GraphPad Prism 5 [GraphPad Software, San Diego, CA, USA 5.00]) for the percentage of aggregation inhibition against the inhibitor concentration used.

mGAT1 = mGAT1 (Mus musculus (Mouse), UniProt P31648); assay: [3H]GABA uptake inhibition, mGAT1 in HEK293 cells; format: cell-based
Protocol: (§1) Exemplary compounds according to the invention were screened at the Ludwig-Maximilian University of Munich to determine the inhibitory ability towards four mouse GAT transporters (mGAT1-mGAT4). […] The biological material was stably transfected human embryonic kidney HEK293 cells, expressing genes to the appropriate transporters. The generated radioactivity was measured with a liquid scintillation counter. […] These determinations were made according to the procedure described in detail in A. Kragler, G. Höfner, K. T. Wanner, Novel parent structures for inhibitors of the murine GABA transporters mGAT3 and mGAT4, Eur. J. Pharmacol. 519 (2005) 43-47.

[2] = target: human recombinant beta-secretase (hBACE1) (Homo sapiens (Human), UniProt P56817); assay: FRET assay, inhibition of human recombinant beta-secretase; format: biochemical; conditions: for IC50: read-out: hBACE-1 IC50; for inhibition at 50 µM: 50 μM inhibitor concentration, read-out: hBACE-1 % inh
Chain of human recombinant beta-secretase (hBACE1) (P56817 46-501): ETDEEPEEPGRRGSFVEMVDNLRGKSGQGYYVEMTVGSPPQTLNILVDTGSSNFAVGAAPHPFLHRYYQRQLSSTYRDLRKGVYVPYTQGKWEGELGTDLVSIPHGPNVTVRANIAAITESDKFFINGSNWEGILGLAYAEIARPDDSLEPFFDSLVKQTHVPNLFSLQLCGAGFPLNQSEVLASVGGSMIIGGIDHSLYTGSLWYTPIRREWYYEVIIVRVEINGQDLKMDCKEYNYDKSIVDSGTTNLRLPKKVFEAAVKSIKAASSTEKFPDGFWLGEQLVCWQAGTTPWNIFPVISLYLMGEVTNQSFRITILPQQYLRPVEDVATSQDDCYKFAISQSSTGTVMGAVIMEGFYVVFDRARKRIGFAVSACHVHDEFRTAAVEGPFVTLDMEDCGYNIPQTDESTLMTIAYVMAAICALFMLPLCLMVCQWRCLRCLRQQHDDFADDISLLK
Protocol: The FRET assay [Vassar, et al.] was used to test activity using 384-well black plates and a microplate reader (EnSpire Multimode; PerkinElmer; Waltham, MA, USA). The test was purchased from Life Technologies Polska Sp. z o.o. (Warsaw, Poland). […] Stock solutions of test compounds were prepared in DMSO and then further diluted with assay buffer (50 mM sodium acetate; pH 4.5) to the appropriate concentrations in the wells. In the first step of the test, 10 μl of the substrate (Rh-[…] quencher, based on the so-called Swedish APP mutation) was mixed with 10 μl of the test compound (or assay buffer; for blank sample). The enzyme reaction was initiated by adding 10 μl of enzyme (hBACE1, 1 U/ml). The reaction mixture was incubated at 25° C. for 60 minutes, then 10 μL of Stop solution (2.5 M sodium acetate) was added. After stopping the reaction, fluorescence was measured at 576 nm. The percentage of enzyme inhibition was calculated from the formula [1−(S60−S0)/(C60−C0)]×100, where S0 and S60 are the fluorescence of the test sample (containing the enzyme, substrate and test compound) at the start of the reaction and after 60 minutes, respectively, whereas C0 and C60 were analogous fluorescence intensities in the blank samples (containing enzyme, substrate and buffer). All test compounds were tested at a concentration of 50 μM in triplicate. […] A BACE1 IV inhibitor (Calbiochem, Merck; Nottingham, UK) [Stachel et al.] was used as a reference compound. […] IC50 values for all test compounds were calculated using non-linear regression (GraphPad Prism 5 [GraphPad Software, San Diego, CA, USA 5.00]) for the percentage of enzyme inhibition against the inhibitor concentration used.

[3] = target: horse plasma butyrylcholinesterase (eqBuChE) (Equus caballus (Horse), UniProt P81908); assay: Ellman's test, inhibition of horse plasma butyrylcholinesterase; format: biochemical
Chain of horse plasma butyrylcholinesterase (eqBuChE) (P81908 whole entry): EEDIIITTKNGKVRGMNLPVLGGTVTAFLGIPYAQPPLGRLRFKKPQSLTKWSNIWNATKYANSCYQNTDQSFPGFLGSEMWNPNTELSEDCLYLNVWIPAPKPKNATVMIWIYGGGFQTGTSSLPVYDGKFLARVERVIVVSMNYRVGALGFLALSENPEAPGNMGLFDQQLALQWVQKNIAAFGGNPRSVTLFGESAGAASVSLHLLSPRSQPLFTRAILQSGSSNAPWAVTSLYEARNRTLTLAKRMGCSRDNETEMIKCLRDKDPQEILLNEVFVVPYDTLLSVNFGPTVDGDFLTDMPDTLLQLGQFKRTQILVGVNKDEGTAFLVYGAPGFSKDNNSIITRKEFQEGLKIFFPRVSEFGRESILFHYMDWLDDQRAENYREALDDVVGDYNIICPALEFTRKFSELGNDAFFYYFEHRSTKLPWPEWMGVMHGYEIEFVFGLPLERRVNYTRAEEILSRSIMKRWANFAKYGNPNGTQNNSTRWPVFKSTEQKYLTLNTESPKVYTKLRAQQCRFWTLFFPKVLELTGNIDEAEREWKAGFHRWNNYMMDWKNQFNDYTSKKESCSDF
Protocol: (§2) The spectrophotometric Ellman's test [Ellman et al.] modified for assays in 96-well plates was used to test the activity. Reagents: 5,5′-dithiobis-(2-nitrobenzoic acid) (DTNB), eqBuChE and butyrylthiocholine iodide (BTC) were purchased from Sigma-Aldrich (Steinheim, Germany). hBuChE was from Vivonics (Bedford, MA, USA). The enzymes were prepared by dissolving in demineralized water to a concentration of 0.384 U/ml. Stock solutions of test compounds were prepared by dissolving in DMSO to a concentration of 0.0034 M. They were then diluted with water to obtain the appropriate concentrations in the wells. In the first step of the test, 25 μl of test compound (or DMSO/water mixture at the appropriate ratio for blank samples) was incubated in 0.1 M phosphate buffer (200 μl, pH=8.0) with DTNB (20 μl; 0.0025M) and with the appropriate enzyme (20 μl; eqBuChE or hBuChE) at 25° C. (animal enzyme) or 36° C. (human enzyme). After a 5 minutes incubation period, 20 μl of BTC solution (0.00375 M) was added. After another 5 minutes, the changes in absorbance of the solutions were measured at 412 nm using a multifunctional microplate reader (EnSpire Multimode; PerkinElmer; Waltham, MA, USA). All compounds were tested at a screening concentration of 10 μM (eqBuChE) or 1 μM (hBuChE). The percentage of enzyme inhibition was calculated from the equation 100-(S/B)×100, where S and B were the enzymatic activity in the test sample well and in the well without sample, respectively. […] All reactions were performed in triplicate. IC50 values were calculated using non-linear regression (GraphPad Prism 5 [GraphPad Software, San Diego, CA, USA 5.00]) for the percentage of enzyme inhibition against the inhibitor concentration used. Tacrine and donepezil were used as reference compounds.

mGAT4 = mGAT4 (Mus musculus (Mouse), UniProt P31650); assay: [3H]GABA uptake inhibition, mGAT4 in HEK293 cells; format: cell-based; conditions: for pIC50 (+/−SEM) mGAT4 / IC50: GABA reuptake; for percentage of [3H]GABA reuptake retained, mGAT4: inhibitor at 100 μM, remaining reuptake; for IC50: read-out: pIC50 (+/−SEM) mGAT4 (converted)
Chain of mGAT4 (P31650 whole entry): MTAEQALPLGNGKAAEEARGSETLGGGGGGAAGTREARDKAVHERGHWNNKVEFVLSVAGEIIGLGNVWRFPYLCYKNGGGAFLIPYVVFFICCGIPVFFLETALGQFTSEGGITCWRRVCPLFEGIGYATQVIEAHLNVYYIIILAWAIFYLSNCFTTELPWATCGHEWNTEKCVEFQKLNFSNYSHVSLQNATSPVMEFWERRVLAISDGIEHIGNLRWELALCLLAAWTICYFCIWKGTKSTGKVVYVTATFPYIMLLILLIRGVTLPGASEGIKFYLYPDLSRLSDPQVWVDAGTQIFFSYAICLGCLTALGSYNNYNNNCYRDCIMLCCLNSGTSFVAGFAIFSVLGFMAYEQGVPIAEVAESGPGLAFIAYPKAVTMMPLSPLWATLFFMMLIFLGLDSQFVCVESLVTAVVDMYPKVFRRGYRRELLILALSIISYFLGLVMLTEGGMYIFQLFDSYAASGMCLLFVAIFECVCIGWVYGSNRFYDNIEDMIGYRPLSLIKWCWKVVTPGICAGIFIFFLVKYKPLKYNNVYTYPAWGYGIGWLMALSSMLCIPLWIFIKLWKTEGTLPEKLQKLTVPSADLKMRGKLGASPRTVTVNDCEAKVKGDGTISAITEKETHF
Protocol: as §1

mGAT3 = mGAT3 (Mus musculus (Mouse), UniProt P31649); assay: [3H]GABA uptake inhibition, mGAT3 in HEK293 cells; format: cell-based; conditions: for percentage of [3H]GABA reuptake retained, mGAT3: inhibitor at 100 μM, remaining reuptake
Chain of mGAT3 (P31649 whole entry): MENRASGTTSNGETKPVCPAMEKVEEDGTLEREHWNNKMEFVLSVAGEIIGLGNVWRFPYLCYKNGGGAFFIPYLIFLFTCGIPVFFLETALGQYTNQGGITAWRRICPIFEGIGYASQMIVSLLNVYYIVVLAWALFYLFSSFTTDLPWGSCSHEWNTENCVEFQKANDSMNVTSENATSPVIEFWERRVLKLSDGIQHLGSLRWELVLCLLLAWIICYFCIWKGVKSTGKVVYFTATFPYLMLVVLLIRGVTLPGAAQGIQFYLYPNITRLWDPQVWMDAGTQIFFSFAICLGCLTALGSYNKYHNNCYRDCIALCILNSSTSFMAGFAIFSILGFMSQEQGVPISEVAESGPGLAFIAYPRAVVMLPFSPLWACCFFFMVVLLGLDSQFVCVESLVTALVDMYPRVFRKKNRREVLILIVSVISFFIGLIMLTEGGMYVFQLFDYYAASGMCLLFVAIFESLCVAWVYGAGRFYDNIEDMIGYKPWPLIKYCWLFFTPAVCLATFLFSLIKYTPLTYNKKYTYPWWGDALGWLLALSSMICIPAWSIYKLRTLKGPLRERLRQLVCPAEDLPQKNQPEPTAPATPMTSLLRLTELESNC
Protocol: as §1

[4] = target: human plasma butyrylcholinesterase (hBuChE) (Homo sapiens (Human), UniProt P06276); assay: Ellman's test, inhibition of human plasma butyrylcholinesterase; format: biochemical; conditions: for inhibition at 1 µM: 1 μM inhibitor concentration, read-out: hBuChE % inh
Chain of human plasma butyrylcholinesterase (hBuChE) (P06276 29-602): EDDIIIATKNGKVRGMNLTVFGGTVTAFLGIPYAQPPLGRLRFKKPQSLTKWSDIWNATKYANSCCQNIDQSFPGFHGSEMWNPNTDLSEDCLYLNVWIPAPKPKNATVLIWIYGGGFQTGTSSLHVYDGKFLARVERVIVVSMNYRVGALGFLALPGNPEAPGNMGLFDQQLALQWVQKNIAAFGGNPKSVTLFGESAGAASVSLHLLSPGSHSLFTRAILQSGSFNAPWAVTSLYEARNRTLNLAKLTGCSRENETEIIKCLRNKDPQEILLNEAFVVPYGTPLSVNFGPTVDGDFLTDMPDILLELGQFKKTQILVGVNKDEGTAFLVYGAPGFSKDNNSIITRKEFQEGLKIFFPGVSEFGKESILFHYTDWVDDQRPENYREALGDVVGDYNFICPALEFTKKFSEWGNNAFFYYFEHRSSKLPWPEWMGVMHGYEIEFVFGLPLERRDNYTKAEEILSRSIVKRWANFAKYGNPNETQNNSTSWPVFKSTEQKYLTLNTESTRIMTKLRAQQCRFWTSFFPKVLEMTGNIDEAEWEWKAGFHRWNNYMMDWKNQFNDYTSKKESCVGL
Protocol: as §2

mGAT2 = mGAT2 (Mus musculus (Mouse), UniProt P31651); assay: [3H]GABA uptake inhibition, mGAT2 in HEK293 cells; format: cell-based; conditions: for pIC50 (+/−SEM) mGAT2 / IC50: GABA reuptake; for IC50: read-out: pIC50 (+/−SEM) mGAT2 (converted)
Chain of mGAT2 (P31651 whole entry): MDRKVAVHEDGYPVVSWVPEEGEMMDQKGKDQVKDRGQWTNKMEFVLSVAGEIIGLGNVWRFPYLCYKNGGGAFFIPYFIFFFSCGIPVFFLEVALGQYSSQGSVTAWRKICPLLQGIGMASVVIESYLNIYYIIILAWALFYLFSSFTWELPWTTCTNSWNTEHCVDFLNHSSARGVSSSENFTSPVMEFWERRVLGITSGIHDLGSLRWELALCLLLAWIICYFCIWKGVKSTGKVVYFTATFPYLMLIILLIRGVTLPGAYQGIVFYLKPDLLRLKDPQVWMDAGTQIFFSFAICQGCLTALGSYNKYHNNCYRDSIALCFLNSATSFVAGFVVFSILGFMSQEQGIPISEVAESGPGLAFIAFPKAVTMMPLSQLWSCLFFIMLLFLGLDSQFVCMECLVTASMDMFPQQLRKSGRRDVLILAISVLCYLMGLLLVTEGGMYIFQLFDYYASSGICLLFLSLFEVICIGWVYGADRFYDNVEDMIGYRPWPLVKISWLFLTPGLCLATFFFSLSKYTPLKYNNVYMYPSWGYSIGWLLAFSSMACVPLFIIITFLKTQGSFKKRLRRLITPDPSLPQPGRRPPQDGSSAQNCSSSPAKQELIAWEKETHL
Protocol: as §1

[5] = inhibitor at 100 μM, remaining reuptake

Chain of Recombinant human Aβ1-42 peptide (P05067 672-713): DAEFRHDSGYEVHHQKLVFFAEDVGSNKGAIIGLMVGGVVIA

| Structure (SMILES) | inhibition at 10 µM [1] | pIC50 (+/−SEM) mGAT1 (mGAT1; GABA reuptake) | IC50 [2] | IC50 [3] | pIC50 (+/−SEM) mGAT4 (mGAT4) | pIC50 (+/−SEM) mGAT3 (mGAT3; GABA reuptake) | IC50 [4] | pIC50 (+/−SEM) mGAT2 (mGAT2) | inhibition at 10 µM ([3]; 10 μM inhibitor concentration, read-out: eqBuChE percent inhibition of enzyme) | percentage of [3H]GABA reuptake retained, mGAT4 (mGAT4) | inhibition at 1 µM [4] | percentage of [3H]GABA reuptake retained, mGAT3 (mGAT3) | percentage of [3H]GABA reuptake retained, mGAT1 (mGAT1; [5]) | IC50 (mGAT4) | IC50 (mGAT2) | inhibition at 50 µM [2] | percentage of [3H]GABA reuptake retained, mGAT2 (mGAT2; [5]) | IC50 (mGAT1; GABA reuptake, read-out: pIC50 (+/−SEM) mGAT1 (converted)) | IC50 (mGAT3; GABA reuptake, read-out: pIC50 (+/−SEM) mGAT3 (converted)) |
| --- | --- | --- | --- | --- | --- | --- | --- | --- | --- | --- | --- | --- | --- | --- | --- | --- | --- | --- | --- |
| O[C@H](CNCc1ccccc1)[C@H](Cc1ccccc1)NC1c2ccccc2-c2ccccc21 [Compound 1, (2R,3S)-3-((9H-fluoren-9-yl)amino)-1-(benzylamino)-4-phenylbutan-2-ol] | 82.5% | 4.96 | 10.1 µM | 0.627 µM | 5.11 +/− 0.01 | 5.15+/− 0.07 | 0.196 µM | 5.01 +/− 0.08 | – | – | – | – | – | – | – | – | – | – | – |
| CC(C)(C)c1cccc(CNC[C@@H](O)[C@H](Cc2ccccc2)NC2c3ccccc3-c3ccccc32)c1 [Compound 3, (2R,3S)-3-((9H-fluoren-9-yl)amino)-1-((3-(tert-butyl)benzyl)amino)-4-phenylbutan-2-ol] | 90.9% | 4.83 | 6.35 µM | – | – | 5.05 +/− 0.05 | – | 4.58 | 78.2% | 56% | 68% | – | – | – | – | – | – | – | – |
| COc1cccc(CNC[C@H](O)[C@H](Cc2ccccc2)NC2c3ccccc3-c3ccccc32)c1 [Compound 6, (2S,3S)-3-((9H-fluoren-9-yl)amino)-1-((3-methoxybenzyl)amino)-4-phenylbutan-2-ol] | 93.3% | 5.15 | 2.25 µM | 2.2 µM | 5.15 +/− 0.034 | – | – | 4.92 +/− 0.14 | – | – | 67.7% | 66% | – | – | – | – | – | – | – |
| COc1ccccc1CNC[C@H](O)[C@H](Cc1ccccc1)NC1c2ccccc2-c2ccccc21 [Compound 7, (2S,3S)-3-((9H-fluoren-9-yl)amino)-1-((2-methoxybenzyl)amino)-4-phenylbutan-2-ol] | 86.7% | 5.20 | 7.23 µM | 0.278 µM | 5.21 +/− 0.04 | – | 0.268 µM | 4.88 +/− 0.07 | – | – | – | 65% | – | – | – | – | – | – | – |
| O[C@@H](CNCC1CCCCC1)[C@H](Cc1ccccc1)NC1c2ccccc2-c2ccccc21 [Compound 11, (2S,3S)-3-((9H-fluoren-9-yl)amino)-1-((cyclohexylmethyl)amino)-4-phenylbutan-2-ol] | 78.6% | – | 8.6 µM | 0.955 µM | – | 4.94 | – | 4.97 | – | 59% | 76.5% | – | 54% | – | – | – | – | – | – |
| O=C(CC1c2ccccc2-c2ccccc21)N[C@@H](Cc1ccccc1)[C@@H](O)CNCc1ccccc1 [Compound 17, N-((2S,3S)-4-(benzylamino)-3-hydroxy-1-phenylbutan-2-yl)-2-(9H-fluorene-9-yl)acetamide] | 42.5% | 4.85 | 11.5 µM | 1.76 µM | – | 4.93 | – | – | – | – | 66.4% | – | – | 7.24 µM | 15.8 µM | – | – | – | – |
| CC(C)(C)c1ccc(CNC[C@H](O)[C@H](Cc2ccccc2)NC(=O)CC2c3ccccc3-c3ccccc32)cc1 [Compound 19, N-((2S,3S)-4-((4-(tert-butyl)benzyl)amino)-3-hydroxy-1-phenylbutan-2-yl)-2-(9H-fluoren-9-yl)acetamide] | 86.7% | 4.90 | – | 3.02 µM | – | 4.90 | – | – | – | – | 77.1% | – | – | 15.5 µM | – | 78.3% | 114% | – | – |
| COc1ccccc1CNC[C@H](O)[C@H](Cc1ccccc1)NC(=O)CC1c2ccccc2-c2ccccc21 [Compound 20, 2-(9H-fluorene-9-yl)-N-((2S,3S)-3-hydroxy-4-((2-methoxybenzyl)amino)-1-phenylbutan-2-yl)acetamide] | < 10% | – | – | 2.2 µM | – | – | – | – | – | – | 74.5% | – | – | 4.07 µM | 9.12 µM | 71.1% | – | 9.55 µM | 8.32 µM |
